Source: paper PMC11157767 (Molecular Cancer, 2024)

System: pMET, pErk, pAkt
Test: Phosphoprotein IHC/western blot in TFG-MET allograft tumors (PD and Survival cohort)
Type: in vivo, mouse
Conditions: for levels of phosphorylated MET, Erk and Akt in initial neoplasms: PD cohort, after second treatment, vs vehicle
Method: Error bars display standard error of the mean. Statistical significance was determined using a One-Way ANOVA followed by Tukey’s multiple comparisons test (*p<0.05, **p<0.01, ***p<0.001, ****p<0.0001)
All treatments started 1 week after transplantation. Radio therapy was administered for 6 days, delivering 12 Gy total. Compound treatment was continued for 84 days. […] N = 8 (vehicle arms) or n = 10 (compound-treated arms), respectively.

SMILES | levels of phosphorylated MET, Erk and Akt in initial neoplasms | animals with pMET and pErk reduced to background levels (Survival cohort, sacrificed under treatment)
CNC(=O)c1ccc(-c2cnc3ncc(Cc4ccc5ncccc5c4)n3n2)cc1F [Capmatinib] | greatly reduced levels | 4/6
C[C@@H](Oc1cc(-c2cnn(C3CCNCC3)c2)cnc1N)c1c(Cl)ccc(F)c1Cl [Crizotinib] | less complete reduction | –
